Measured values taken from article PMC5500233 (Peptides, 2016).
Values joined by “and” are separate entries in the source; they are usually repeats but may differ in a detail not shown here. Equal values may be shown once. “Also recorded” adds a separate entry of the source. Values belong to the molecule of their own block, whether it stands above or below them.

What was measured:
DPP 3 = conditions: ref [2],[15]; cited from earlier work
human DPP 3 [1] = target: T1, human DPP 3 (Homo sapiens, UniProt Q9NY33); experiment: Metabolism of unlabeled Ang-; format: biochemical; conditions: 100 μM Ang-(1–7), 37 °C, HPLC-UV
T1 sequence (Q9NY33 1-737): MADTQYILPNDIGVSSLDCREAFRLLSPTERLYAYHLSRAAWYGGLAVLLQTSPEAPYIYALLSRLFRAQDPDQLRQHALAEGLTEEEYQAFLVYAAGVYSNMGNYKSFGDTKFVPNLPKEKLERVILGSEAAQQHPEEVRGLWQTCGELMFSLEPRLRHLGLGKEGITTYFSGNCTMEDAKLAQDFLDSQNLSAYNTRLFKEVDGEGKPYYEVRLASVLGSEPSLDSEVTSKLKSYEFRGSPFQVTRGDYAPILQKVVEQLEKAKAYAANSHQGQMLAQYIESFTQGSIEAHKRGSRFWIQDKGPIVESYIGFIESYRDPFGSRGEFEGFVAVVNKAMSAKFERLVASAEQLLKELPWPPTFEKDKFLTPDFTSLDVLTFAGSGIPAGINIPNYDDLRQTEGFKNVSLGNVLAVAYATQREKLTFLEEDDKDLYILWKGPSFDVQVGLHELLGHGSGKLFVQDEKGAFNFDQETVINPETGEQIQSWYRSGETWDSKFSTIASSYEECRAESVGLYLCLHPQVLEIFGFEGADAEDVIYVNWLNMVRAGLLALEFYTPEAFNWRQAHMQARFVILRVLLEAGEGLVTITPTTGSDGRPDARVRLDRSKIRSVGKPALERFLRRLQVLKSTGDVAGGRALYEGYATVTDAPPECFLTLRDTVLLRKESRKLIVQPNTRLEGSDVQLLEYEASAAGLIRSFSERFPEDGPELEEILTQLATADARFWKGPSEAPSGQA

[2] = target: Ang-(1–7) peptidase in renal tubules; conditions: JMV-390, ref [15],[25]; cited from earlier work
[3] = tested on: DPP 3 activity in HK-2 cells; experiment: ^125I-Ang-; format: cell-based, human; conditions: for peptidase activity: mean±SEM, control 136±6
[4] = tested on: TOP expressed in the HK-2 cells; conditions: high dose of JMV-390; ref [25]; cited from earlier work
[5] = target: Ang-(1–7) peptidase, partially purified fraction from brain medulla; conditions: JMV-390; brain medulla Ang-(1–7) peptidase; ref [15]; cited from earlier work
human DPP 3 [6] = target: T1, human DPP 3; experiment: JMV-390 inhibition of ^125I-Ang-; format: biochemical; conditions: JMV-390, Fig. 3: 0.5 and 10 nM
[7] = tested on: purified Ang-(1–7) peptidase from HK-2 cells; experiment: JMV-390 inhibition of ^125I-Ang-; format: biochemical, human; conditions: JMV-390, Fig. 3: 0.5 and 10 nM
HK-2 cells = experiment: Intracellular Ang-; format: cell-based, human
Ang-(1–7) RIA = conditions: as previously described; ref [27]; cited from earlier work
[8] = tested on: Ang-(1–7) peptidase, partially purified fraction from brain medulla; conditions: ref [15], cited from earlier work
human DPP 3 [9] = target: T1, human DPP 3; experiment: Kinetic studies of Ang-; format: biochemical; conditions: 37 °C, n=3
HK-2 peptidase = conditions: ref [25]; cited from earlier work

Molecule: O=C(O)CN(CCN(CC(=O)O)CC(=O)O)CC(=O)O [EDTA]
- sensitivity of DPP 3 to thiol inhibitors and chelating agents (DPP 3): unusual sensitivity

- metabolism of unlabeled Ang-(1–7) to Ang-(5–7) in presence of inhibitor (human DPP 3 [1]; JMV-390 1 μM, 100 ng DPP 3, 60 min): attenuated the metabolism of Ang-(1–7)
Molecule: CC[C@H](C)[C@H](NC(=O)[C@@H](CC(=O)NO)Cc1ccccc1)C(=O)N[C@@H](CC(C)C)C(=O)O [JMV-390]
- IC50 [2]: ~1 nM
- peptidase activity ([3]; 20 nM JMV-390, 72 h, n = 2): 76 ± 13 fmol/min/mg
- peptidase activity ([3]; 200 nM JMV-390, 72 h, n = 3, p<0.05): 17 ± 3 fmol/min/mg
- reduction of peptidase (DPP 3) activity ([3]; 200 nM JMV-390, 72 h, vs control, n = 3, p<0.05): 85% and > 80%
- effect on metabolism of ^125I-Ang-(1–7) to ^125I-Ang-(3-4) ([3]; 20 or 200 nM JMV-390, 72 h, 100,000 × g cytosolic fraction): significantly reduced the metabolism
- direct conversion of ^125I-Ang I to ^125I-Ang-(1–7) by TOP [4]: inhibited the direct conversion
- IC50 [5]: < 1 nM
- effect on Ang-(1–7) hydrolysis by DPP 3 (human DPP 3 [6]): abolished; also recorded: attenuated the metabolism
- effect on Ang-(1–7) hydrolysis by purified Ang-(1–7) peptidase [7]: abolished; also recorded: attenuated the metabolism
- effect on intracellular content of Ang-(1–7) (HK-2 cells; 20 nM JMV-390, 72 h): tended to augment the cellular levels of Ang-(1–7); also recorded: increased the intracellular content of Ang-(1–7)
- increase in Ang-(1–7) content (HK-2 cells; 20 nM JMV-390, 72 h, vs basal, n = 3, not statistically significant): 68%
- effect on intracellular content of Ang-(1–7) (HK-2 cells; 200 nM JMV-390, 72 h): significantly decreased the content of Ang-(1–7)
- Ang-(1–7) content (HK-2 cells; 200 nM JMV-390, 72 h, RIA, mean±SEM, n = 3, p<0.05 vs 20 nM JMV-390, basal 22 ±2): 15 ±3 fmols/mg protein
- increase in cellular levels of Ang-(1–7) (HK-2 cells; lower dose (20 nM) of JMV-390, not statistically significant): approximately 2 fold

Molecule: O=C(O)c1cc[c]([Hg][Cl])cc1 [PCMB]
- sensitivity of DPP 3 to thiol inhibitors and chelating agents (DPP 3): unusual sensitivity

Molecule: c1cnc2c(c1)ccc1cccnc12 [ophenanthroline]
- sensitivity of DPP 3 to thiol inhibitors and chelating agents (DPP 3): unusual sensitivity

Molecule: APMA
- sensitivity of DPP 3 to thiol inhibitors and chelating agents (DPP 3): unusual sensitivity

Molecule: Ang II: angiotensin peptide (DRVYIHPF; Angiotensin-2; UniProt P01019 25-32, looked up)
- recognition by Ang-(1–7) RIA (cross-reactivity) (Ang-(1–7) RIA): < 0.01%

Molecule: Ang-(2–7): angiotensin peptide recognized by the Ang-(1–7) RIA (RVYIHP; UniProt P01019 26-31, looked up, fragment)
- recognition by Ang-(1–7) RIA (Ang-(1–7) RIA): recognizes

Molecule: Angiotensin-(1–7) [Ang-(1–7)]
- product of unlabeled Ang-(1–7) hydrolysis (human DPP 3 [1]; 100 ng human DPP 3, 60 min): a major peak corresponding to the metabolite Ang-(5–7)
- hydrolysis rate, fold higher than Ang II ([8]; enriched brain medulla peptidase): 12 fold
- kcat (human DPP 3 [9]): 7.3 s⁻¹

Molecule: [Abz-Asp^1, Tyr (NO2)^7]-Ang-(1–7)]
- hydrolysis by HK-2 peptidase (HK-2 peptidase): resistant

Molecule: apelin 13
- metabolism by enriched peptidase [8]: failed to metabolize

Molecule: bradykinin (RPPGFSPFR; Bradykinin; UniProt P01042 381-389, looked up)
- metabolism by enriched peptidase [8]: failed to metabolize

Molecule: neurotensin
- metabolism by enriched peptidase [8]: failed to metabolize
